Data published in patent US20180273528A1 (LES LABORATOIRES SERVIER, priority 2015, published 2018).

How the values were obtained:
CDK9 = molecular target: T1, CDK9 (Homo sapiens, UniProt P50750); experiment: Kinase TR-FRET assay, CDK9; assay type: biochemical; conditions: full-length human kinase, 10 μM ATP
T1 construct: full-length human kinases from Carna Biosciences; purchased Carna Biosciences 04-110
In short: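 Full-length human CDK9 (0.9 ng/μl) incubated 100 min at room temperature with 10 μM ATP, 100 nM ULight-MBP peptide and compound (0.1 nM–30 μM) in 50 mM HEPES pH 7.4, 1 mM EGTA, 10 mM MgCl2, 2 mM DTT, 0.01% Tween20. Stopped with 10 mM EDTA, then 1 nM Eu-anti-phospho-Thr232 MBP antibody added for 1 h. TR-FRET read at 665/620 nm with 340 nm excitation.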

DYRK1A [1] = molecular target: T2, DYRK1A (Homo sapiens, UniProt Q13627); experiment: Kinase TR-FRET assay, DYRK1A; assay type: biochemical; set-up: full-length, wild-type human DYRK1A (NM_001396) with an HA tag; expressed in transfected cells; host or cells: human U2-OS osteosarcoma cells, transient transfection of a pcDNA3.1 plasmid; conditions: full-length human kinase, 10 μM ATP
In short: (§1)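 Compounds tested at 0.1 nM to 30 μM in reaction buffer; reaction stopped with 10 mM EDTA. Phosphorylated MBP detected with 1 nM Europium-labelled anti-phospho-Thr232 antibody by TR-FRET.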

[2] = molecular target: T3, His-TEV-DYRK1A Kinase domain (aa127-485) (Homo sapiens, UniProt Q13627); experiment: Kinase ADP assay (ADP Hunter), DYRK1A kinase domain; assay type: biochemical; conditions: 20 μM ATP
T3 construct: His-TEV-DYRK1A Kinase domain (aa127-485); His tag (N); TEV protease cleavage site (N)
In short: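 Readout is ADP Hunter fluorescence at 590 nm, developed 20 min at 30 °C after the kinase step. That step ran 10 min at 30 °C in Hepes pH 7.4 (10 mM MgCl2, 1 mM EGTA, 0.02% Tween20) containing 20 μM ATP, 40 μM peptide and 20 nM enzyme plus compound.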

CLK1 = molecular target: T4, CLK1 (Homo sapiens, UniProt P49759); experiment: Kinase TR-FRET assay, CLK1; assay type: biochemical; conditions: full-length human kinase, 10 μM ATP
T4 construct: full-length human kinases from Carna Biosciences; purchased Carna Biosciences 04-126
T4 sequence (P49759 1-526 isoform P49759-3): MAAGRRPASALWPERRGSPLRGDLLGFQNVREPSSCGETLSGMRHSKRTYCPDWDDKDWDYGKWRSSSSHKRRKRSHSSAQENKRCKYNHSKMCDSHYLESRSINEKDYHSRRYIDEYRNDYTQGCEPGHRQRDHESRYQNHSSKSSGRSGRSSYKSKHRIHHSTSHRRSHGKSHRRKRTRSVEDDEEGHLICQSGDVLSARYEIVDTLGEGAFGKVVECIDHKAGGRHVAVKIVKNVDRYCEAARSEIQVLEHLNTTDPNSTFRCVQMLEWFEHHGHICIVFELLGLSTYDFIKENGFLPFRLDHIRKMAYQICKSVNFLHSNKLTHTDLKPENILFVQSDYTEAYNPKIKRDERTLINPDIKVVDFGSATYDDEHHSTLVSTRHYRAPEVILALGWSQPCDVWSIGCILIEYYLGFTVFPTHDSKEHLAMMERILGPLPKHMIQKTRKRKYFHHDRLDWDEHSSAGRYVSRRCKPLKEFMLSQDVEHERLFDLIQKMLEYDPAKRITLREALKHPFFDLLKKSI
Method: Inhibition of the enzymatic activity of human kinases was evaluated in a Time-Resolved Fluorescence Resonance Energy Transfer (TR-FRET) assay in 384-well reaction plates. […] Test compounds of the invention were added in reaction buffer at a range of concentrations from 0.1 nM to 30 μM. Following addition of EDTA (Sigma E7889, 10 mM) to stop the reaction, Europium-labelled mouse monoclonal antibody recognizing phospho-Thr232 in MBP (Perkin Elmer TRF0201, 1 nM) was added.

DYRK1B = molecular target: T5, DYRK1B (Homo sapiens, UniProt Q9Y463); experiment: Kinase TR-FRET assay, DYRK1B; assay type: biochemical; conditions: full-length human kinase, 10 μM ATP
T5 construct: full-length human kinases from Carna Biosciences; purchased Carna Biosciences 04-131
T5 sequence (Q9Y463 whole entry): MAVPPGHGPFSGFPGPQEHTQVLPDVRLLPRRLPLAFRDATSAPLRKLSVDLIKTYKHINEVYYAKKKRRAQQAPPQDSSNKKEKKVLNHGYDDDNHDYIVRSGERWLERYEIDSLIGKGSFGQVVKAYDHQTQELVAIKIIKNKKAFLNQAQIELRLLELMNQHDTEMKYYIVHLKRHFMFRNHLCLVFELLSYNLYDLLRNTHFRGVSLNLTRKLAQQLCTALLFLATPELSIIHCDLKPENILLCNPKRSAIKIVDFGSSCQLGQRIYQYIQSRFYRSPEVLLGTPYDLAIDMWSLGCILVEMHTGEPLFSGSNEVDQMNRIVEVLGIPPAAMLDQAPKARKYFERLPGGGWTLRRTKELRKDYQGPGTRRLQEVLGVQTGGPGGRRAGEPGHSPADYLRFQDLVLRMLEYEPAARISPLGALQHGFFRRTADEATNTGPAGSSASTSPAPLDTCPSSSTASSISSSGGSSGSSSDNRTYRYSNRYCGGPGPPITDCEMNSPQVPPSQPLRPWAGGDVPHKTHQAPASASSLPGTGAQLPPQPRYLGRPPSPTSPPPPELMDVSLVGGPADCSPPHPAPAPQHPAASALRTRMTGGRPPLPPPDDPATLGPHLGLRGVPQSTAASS
In short: as §1

DYRK1A [3] = molecular target: T2, DYRK1A; experiment: Cellular DYRK1 autophosphorylation assay in U2-OS cells; assay type: cell-based; set-up: full-length, wild-type human DYRK1A (NM_001396) with an HA tag; expressed in transfected cells; host or cells: human U2-OS osteosarcoma cells, transient transfection of a pcDNA3.1 plasmid; conditions: U2-OS cells transfected with HA-tagged human DYRK1A, 5 hours exposure; read-out: IC50 (μM) P-Ser520-Dyrk1A -Cell assay
In short: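 IC50 derived from dose-response curves of phospho-Ser520-DYRK1A (blots normalised to total DYRK1A), quantified by either immunoblotting with chemiluminescence or Mesoscale electrochemiluminescent ELISA. Compounds applied to U2-OS cells across several concentrations for 5 hours.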

T1 sequence (P50750 whole entry): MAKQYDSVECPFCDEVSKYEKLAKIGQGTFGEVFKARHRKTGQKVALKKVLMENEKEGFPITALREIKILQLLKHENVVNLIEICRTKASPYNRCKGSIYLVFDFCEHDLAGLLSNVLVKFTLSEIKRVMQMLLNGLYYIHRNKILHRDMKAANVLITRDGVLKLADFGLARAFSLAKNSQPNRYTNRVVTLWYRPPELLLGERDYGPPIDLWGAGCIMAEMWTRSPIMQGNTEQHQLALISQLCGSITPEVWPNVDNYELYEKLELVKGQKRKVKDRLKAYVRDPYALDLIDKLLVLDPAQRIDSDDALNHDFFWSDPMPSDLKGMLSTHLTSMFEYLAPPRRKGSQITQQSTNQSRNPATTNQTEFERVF
T1 sequence (O60563 whole entry partner): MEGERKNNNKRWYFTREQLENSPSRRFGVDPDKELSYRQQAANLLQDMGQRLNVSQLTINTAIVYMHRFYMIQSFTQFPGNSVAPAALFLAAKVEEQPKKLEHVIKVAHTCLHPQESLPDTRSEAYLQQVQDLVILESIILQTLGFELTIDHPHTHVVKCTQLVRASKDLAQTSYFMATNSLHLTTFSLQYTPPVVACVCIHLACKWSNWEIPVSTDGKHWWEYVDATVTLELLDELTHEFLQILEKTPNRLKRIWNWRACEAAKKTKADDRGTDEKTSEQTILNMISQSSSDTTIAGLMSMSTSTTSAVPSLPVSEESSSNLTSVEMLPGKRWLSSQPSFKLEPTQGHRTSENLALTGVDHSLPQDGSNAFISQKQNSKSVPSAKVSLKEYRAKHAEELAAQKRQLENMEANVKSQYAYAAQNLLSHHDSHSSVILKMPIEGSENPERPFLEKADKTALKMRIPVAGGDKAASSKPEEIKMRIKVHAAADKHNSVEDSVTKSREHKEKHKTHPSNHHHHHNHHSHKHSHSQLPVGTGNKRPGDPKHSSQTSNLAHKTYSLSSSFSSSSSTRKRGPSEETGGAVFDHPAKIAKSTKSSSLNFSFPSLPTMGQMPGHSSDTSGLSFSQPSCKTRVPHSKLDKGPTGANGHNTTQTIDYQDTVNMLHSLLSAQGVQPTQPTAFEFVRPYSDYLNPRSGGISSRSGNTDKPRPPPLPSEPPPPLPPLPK

IC50 (CDK9) [µM] | IC50 (DYRK1A [1]) [µM] | IC50 [2] [µM] | IC50 (CLK1) [µM] | IC50 (DYRK1B) [µM] | IC50 (DYRK1A [3]) [µM] | SMILES
> 3 | 0.008 | 0.016 | 0.238 | 0.012 | 0.128 | CCCCc1nc2ccc(-c3cc(N)nc(N)c3)nc2n1CCCC [Example 144, 4-(2,3-dibutyl-3H-imidazo[4,5-b]pyridin-5-yl)pyridine-2,6-diamine]
1.24 | 0.002 | 0.007 | 0.016 | 0.006 | 0.1 | CCCCn1c(C)nc2ccc(-c3cc(N)nc(N)c3)nc21 [Example 148, 4-(3-butyl-2-methyl-3H-imidazo[4,5-b]pyridin-5-yl)pyridine-2,6-diamine]
2.87 | 0.004 | 0.013 | 0.019 | 0.008 | 0.17 | COCCCCn1c(C)nc2ccc(-c3cc(N)nc(N)c3)nc21 [Example 151, 4-[3-(4-methoxybutyl)-2-methyl-3H-imidazo[4,5-b]pyridin-5-yl]pyridine-2,6-diamine]
1.02 | 0.001 | 0.01 | 0.016 | 0.003 | 0.035 | Cc1nc2ccc(-c3cc(N)nc(N)c3)nc2n1CCOc1ccccc1 [Example 153, 4-[2-methyl-3-(2-phenoxyethyl)-3H-imidazo[4,5-b]pyridin-5-yl]pyridine-2,6-diamine]
> 10 | 0.011 | 0.021 | 0.058 | 0.003 | 0.153 | CCCCn1c(CC)nc2ccc(-c3cc(N)nc(N)c3)nc21 [Example 157, 4-(3-butyl-2-ethyl-3H-imidazo[4,5-b]pyridin-5-yl)pyridine-2,6-diamine]
0.467 | 0.005 | 0.013 | 0.016 | 0.01 | 0.044 | Cc1nc2ccc(-c3cc(N)nc(N)c3)nc2n1C[C@H](C)Oc1cccc(Br)n1 [Example 180]
1.1 | 0.003 | 0.012 | 0.016 | 0.007 | 0.053 | Cc1nc2ccc(-c3cc(N)nc(N)c3)nc2n1CCOc1cccc(F)c1 [Example 199, 4-{3-[2-(3-fluorophenoxy)ethyl]-2-methyl-3H-imidazo[4,5-b]pyridin-5-yl}pyridine-2,6-diamine]
1.52 | 0.005 | 0.018 | 0.02 | 0.01 | 0.069 | Cc1nc2ccc(-c3cc(N)nc(N)c3)nc2n1CCOc1cccc(Cl)c1 [Example 200]
> 3 | 0.005 | 0.017 | 0.028 | 0.007 | 0.094 | COc1ccccc1OCCn1c(C)nc2ccc(-c3cc(N)nc(N)c3)nc21 [Example 206, 4-{3-[2-(2-methoxyphenoxy)ethyl]-2-methyl-3H-imidazo[4,5-b]pyridin-5-yl}pyridine-2,6-diamine]
1.01 | 0.003 | 0.008 | 0.018 | 0.006 | 0.047 | Cc1nc2ccc(-c3cc(N)nc(N)c3)nc2n1CCOc1ccc2[nH]ccc2c1 [Example 210, 4-{3-[2-(1H-indol-5-yloxy)ethyl]-2-methyl-3H-imidazo[4,5-b]pyridin-5-yl}pyridine-2,6-diamine]
> 10 | 0.003 | 0.007 | 0.017 | 0.04 | 0.083 | Cc1nc2ccc(-c3cc(N)nc(N)c3)nc2n1CCOc1c(F)cccc1F [Example 212, 4-{3-[2-(2,6-difluorophenoxy)ethyl]-2-methyl-3H-imidazo[4,5-b]pyridin-5-yl}pyridine-2,6-diamine]
0.724 | 0.003 | 0.011 | 0.019 | 0.013 | 0.075 | Nc1cc(-c2ccc3nc(Cl)n(C4CCCC4)c3n2)cc(N)n1 [Example 220, 4-(2-chloro-3-cyclopentyl-3H-imidazo[4,5-b]pyridin-5-yl)pyridine-2,6-diamine]
0.317 | 0.027 | 0.008 | 0.016 | 0.012 | 0.043 | N#Cc1nc2ccc(-c3cc(N)nc(N)c3)nc2n1C1CCCC1 [Example 221, 3-cyclopentyl-5-(2,6-diaminopyridin-4-yl)-3H-imidazo[4,5-b]pyridine-2-carbonitrile]
> 3 | 0.018 | 0.023 | 0.062 | 0.031 | 0.244 | N#Cc1nc2ccc(-c3cc(N)nc(N)c3)nc2n1CCOc1ccccc1 [Example 222, 5-(2,6-diaminopyridin-4-yl)-3-(2-phenoxyethyl)-3H-imidazo[4,5-b]pyridine-2-carbonitrile]
0.713 | 0.005 | 0.013 | 0.023 | 0.01 | 0.148 | N#Cc1nc2ccc(-c3cc(N)nc(N)c3)nc2n1CCCC(F)(F)F [Example 226, 5-(2,6-diaminopyridin-4-yl)-3-(4,4,4-trifluorobutyl)-3H-imidazo[4,5-b]pyridine-2-carbonitrile]
